PMC5064435, “Inhibition of endoplasmic reticulum glucosidases is required for in vitro and in vivo dengue antiviral activity by the iminosugar UV-4” (Antiviral Research, 2016)
Counter-ions that a name gives are not always drawn.

Columns and labels:
Assay in all cases: enzyme inhibition assay
Type in all cases: biochemical
Details in all cases: read-out: IC50 ^a / UV-4B
[1] = molecular target: T1, Human lysosome (α-galactosidase) (Homo sapiens, UniProt P06280)
T1 construct: gene GLA
T1 sequence (P06280 32-429): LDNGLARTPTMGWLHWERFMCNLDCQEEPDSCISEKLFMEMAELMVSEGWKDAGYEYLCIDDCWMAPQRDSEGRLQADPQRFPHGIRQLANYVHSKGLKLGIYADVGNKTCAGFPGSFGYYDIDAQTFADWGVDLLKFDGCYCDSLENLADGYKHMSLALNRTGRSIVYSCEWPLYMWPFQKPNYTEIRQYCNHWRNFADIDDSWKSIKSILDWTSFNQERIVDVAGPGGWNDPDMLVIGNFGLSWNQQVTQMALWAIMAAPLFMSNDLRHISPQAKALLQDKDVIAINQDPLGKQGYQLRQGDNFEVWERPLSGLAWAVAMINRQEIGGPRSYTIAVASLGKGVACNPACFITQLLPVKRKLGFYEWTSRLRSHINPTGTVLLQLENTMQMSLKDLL
From the text: enzyme inhibition assay on Human lysosome (α-galactosidase)

Rat intestinal sucrase = molecular target: T2, Rat intestinal sucrase (Rattus norvegicus, UniProt P23739)
T2 construct: gene Si; native rat intestinal enzyme; sucrase (C-terminal) subunit of sucrase-isomaltase
T2 sequence (P23739 1014-1841 limits assumed): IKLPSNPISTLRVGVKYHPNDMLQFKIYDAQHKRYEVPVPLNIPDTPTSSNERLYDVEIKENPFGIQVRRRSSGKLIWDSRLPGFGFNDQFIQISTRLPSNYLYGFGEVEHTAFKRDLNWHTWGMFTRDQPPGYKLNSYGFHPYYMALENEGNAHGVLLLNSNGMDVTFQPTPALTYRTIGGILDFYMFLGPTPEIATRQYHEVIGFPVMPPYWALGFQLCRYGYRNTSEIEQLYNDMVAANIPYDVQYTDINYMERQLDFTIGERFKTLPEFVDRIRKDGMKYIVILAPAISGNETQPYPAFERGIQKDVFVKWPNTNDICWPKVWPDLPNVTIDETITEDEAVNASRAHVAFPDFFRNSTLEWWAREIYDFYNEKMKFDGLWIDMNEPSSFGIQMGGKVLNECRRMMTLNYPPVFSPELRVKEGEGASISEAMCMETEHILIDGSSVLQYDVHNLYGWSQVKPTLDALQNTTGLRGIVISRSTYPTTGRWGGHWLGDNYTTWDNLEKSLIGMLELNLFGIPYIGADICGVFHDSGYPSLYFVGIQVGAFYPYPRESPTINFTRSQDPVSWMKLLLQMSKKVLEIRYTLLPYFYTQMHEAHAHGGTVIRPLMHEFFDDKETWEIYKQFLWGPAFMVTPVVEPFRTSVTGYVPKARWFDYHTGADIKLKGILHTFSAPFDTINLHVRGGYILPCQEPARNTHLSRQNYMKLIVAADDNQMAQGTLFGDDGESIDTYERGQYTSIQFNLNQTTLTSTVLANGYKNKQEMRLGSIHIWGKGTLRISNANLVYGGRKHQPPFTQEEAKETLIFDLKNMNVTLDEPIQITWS
From the text: enzyme inhibition assay on Rat intestinal sucrase

Rat intestinal maltase = molecular target: T3, Rat intestinal maltase
T3 construct: gene Mgam; native rat intestinal enzyme activity; maltase may be maltase-glucoamylase and/or sucrase-isomaltase
From the text: enzyme inhibition assay on Rat intestinal maltase

`COCCCCCCCCCN1C[C@H](O)[C@@H](O)[C@H](O)[C@H]1CO` [UV-4B, N-(9′-methoxynonyl)-1-deoxynojirimycin hydrochloride] was tested. Which IC50 [1] did it give?
The IC50 was > 1000 µM.

And the IC50 (Rat intestinal sucrase)?
The IC50 was 0.5 µM.

And the IC50 (Rat intestinal maltase)?
Its IC50 is 0.28 µM.
